Test results taken from the supplement of paper PMC13380429.

Key:
[1] = system: A549-ACE2; assay: phospholipidosis EC50; higher = less potent phospholipidosis inducer
[2] = system: A549-ACE2; assay: drug-induced phospholipidosis relative to tamoxifen; higher = more phospholipidosis
[3] = system: Calu-3; assay: drug sensitivity score (DSS) for viability; higher = more toxic; extreme values may be limits of the assay; details: 72 h
[4] = system: HepG2; assay: as above; details: 72 h
[5] = system: Vero E6; assay: as above; details: 72 h
[6] = system: Caco-2; assay: as above; details: 72 h
[7] = system: U2OS; assay: as above; details: 72 h
[8] = system: A549-ACE2 infected with SARS-CoV-2; assay: cell count relative to DMSO; higher = less toxic; details: 24 h
[9] = system: A549-ACE2 infected with SARS-CoV-2; assay: SARS-CoV-2 infection rate relative to DMSO; higher = more infection; details: 24 h
[10] = system: Calu-3; assay: relative viability EC50 (midpoint between 100% and the lowest measured viability); higher = less toxic; details: 72 h
[11] = system: Vero E6; assay: as above; details: 72 h
[12] = system: Caco-2; assay: as above; details: 72 h
[13] = system: U2OS; assay: as above; details: 72 h
[14] = system: A549-ACE2 infected with SARS-CoV-2; assay: morphology score (similarity to uninfected cells); higher = more like uninfected cells; details: 24 h
[15] = system: Calu-3; assay: cell viability relative to DMSO; higher = less toxic; details: 72 h
[16] = system: HepG2; assay: as above; details: 72 h
[17] = system: Vero E6; assay: as above; details: 72 h
[18] = system: Caco-2; assay: as above; details: 72 h
[19] = system: U2OS; assay: as above; details: 72 h

CN1CCN(CCCN2c3ccccc3Sc3ccc(Cl)cc32)CC1 [prochlorperazine]
Details | SARS-CoV-2 infection rate [%] | cell count [%] | cell viability [%] | morphology score | phospholipidosis EC50 [µM]
[1], 24 h | – | – | – | – | 3.19
[1], 48 h | – | – | – | – | 4.05
[1], 72 h | – | – | – | – | 12.5
[8], 0.3 µM | – | 100 | – | – | –
[8], 3 µM | – | 123 | – | – | –
[8], 10 µM | – | 117 | – | – | –
[8], 30 µM | – | 64 | – | – | –
[9], 0.3 µM | 95 | – | – | – | –
[9], 3 µM | 29 | – | – | – | –
[9], 10 µM | 12 | – | – | – | –
[9], 30 µM | 50 | – | – | – | –
[14], 0.3 µM | – | – | – | 0 | –
[14], 3 µM | – | – | – | 0.84 | –
[14], 10 µM | – | – | – | 0.79 | –
[14], 30 µM | – | – | – | 0.19 | –
[15], 1 nM | – | – | 106 | – | –
[15], 10 nM | – | – | 103 | – | –
[15], 100 nM | – | – | 105 | – | –
[15], 1000 nM | – | – | 105 | – | –
[15], 10000 nM | – | – | 93.2 | – | –
[16], 1 nM | – | – | 107 | – | –
[16], 10 nM | – | – | 102 | – | –
[16], 100 nM | – | – | 97 | – | –
[16], 1000 nM | – | – | 106 | – | –
[16], 10000 nM | – | – | 55.5 | – | –
[17], 1 nM | – | – | 96 | – | –
[17], 10 nM | – | – | 92.5 | – | –
[17], 100 nM | – | – | 101 | – | –
[17], 1000 nM | – | – | 97.4 | – | –
[17], 10000 nM | – | – | 81 | – | –
[18], 1 nM | – | – | 100 | – | –
[18], 10 nM | – | – | 84.1 | – | –
[18], 100 nM | – | – | 96.9 | – | –
[18], 1000 nM | – | – | 99.8 | – | –
[18], 10000 nM | – | – | 76.6 | – | –
[19], 1 nM | – | – | 103 | – | –
[19], 10 nM | – | – | 94.5 | – | –
[19], 100 nM | – | – | 98.6 | – | –
[19], 1000 nM | – | – | 94 | – | –
[19], 10000 nM | – | – | 91.4 | – | –

drug-induced phospholipidosis [%], [2]
Details | 0.3 µM | 0.833333 µM | 3.33333 µM | 6.66667 µM | 10 µM | 30 µM
24 h | 1.08 | 10.5 | 48.6 | 76.3 | 92.2 | 56.6
48 h | 0.82 | 7.81 | 45.8 | 83.3 | 94.4 | –
72 h | 3.57 | 9.54 | 35 | 75 | 104 | –

Details | drug sensitivity score | relative viability EC50 [µM]
[3] | 0 | –
[4] | 1.9 | –
[5] | 0.9 | –
[6] | 0.9 | –
[7] | 0 | –
[10] | – | > 10
[11] | – | > 10
[12] | – | > 10
[13] | – | > 10

COc1ccc2cc1Oc1ccc(cc1)C[C@H]1c3cc(c(OC)cc3CCN1C)Oc1c(OC)c(OC)cc3c1[C@H](C2)N(C)CC3 [tetrandrine]
Details | SARS-CoV-2 infection rate [%] | cell count [%] | cell viability [%] | morphology score | phospholipidosis EC50 [µM]
[1], 24 h | – | – | – | – | 7
[1], 48 h | – | – | – | – | 10.2
[1], 72 h | – | – | – | – | 5.6
[8], 0.3 µM | – | 106 | – | – | –
[8], 3 µM | – | 115 | – | – | –
[8], 10 µM | – | 119 | – | – | –
[8], 30 µM | – | 79 | – | – | –
[9], 0.3 µM | 92 | – | – | – | –
[9], 3 µM | 23 | – | – | – | –
[9], 10 µM | 21 | – | – | – | –
[9], 30 µM | 42 | – | – | – | –
[14], 0.3 µM | – | – | – | 0.37 | –
[14], 3 µM | – | – | – | 0.79 | –
[14], 10 µM | – | – | – | 0.07 | –
[14], 30 µM | – | – | – | -0.15 | –
[15], 1 nM | – | – | 88.3 | – | –
[15], 10 nM | – | – | 109 | – | –
[15], 100 nM | – | – | 91.3 | – | –
[15], 1000 nM | – | – | 99.9 | – | –
[15], 10000 nM | – | – | 29.1 | – | –
[16], 1 nM | – | – | 104 | – | –
[16], 10 nM | – | – | 102 | – | –
[16], 100 nM | – | – | 97.7 | – | –
[16], 1000 nM | – | – | 94.1 | – | –
[16], 10000 nM | – | – | 71.5 | – | –
[17], 1 nM | – | – | 100 | – | –
[17], 10 nM | – | – | 94.2 | – | –
[17], 100 nM | – | – | 94.6 | – | –
[17], 1000 nM | – | – | 94.4 | – | –
[17], 10000 nM | – | – | 92.6 | – | –
[18], 1 nM | – | – | 100 | – | –
[18], 10 nM | – | – | 97.9 | – | –
[18], 100 nM | – | – | 92.1 | – | –
[18], 1000 nM | – | – | 95.4 | – | –
[18], 10000 nM | – | – | 79.5 | – | –

drug-induced phospholipidosis [%], [2]
Details | 0.3 µM | 0.833333 µM | 3.33333 µM | 6.66667 µM | 10 µM | 30 µM
24 h | 16.2 | 29.5 | 61.4 | 78 | 92.7 | 115
48 h | 16.2 | 22.2 | 51.1 | 78.8 | 101 | 145
72 h | 8.49 | 16.5 | 49.2 | 80.6 | 103 | 176

Details | drug sensitivity score | relative viability EC50 [µM]
[3] | 3.9 | –
[4] | 2.1 | –
[5] | 0 | –
[6] | 0.7 | –
[10] | – | 3.15
[11] | – | > 10
[12] | – | > 10
